Assay results reported in ChEMBL document CHEMBL3988442, “University of Dundee, Small-Polar-MMV Screening Library” (2021).
Values joined by “and” are separate entries in the source; they are usually repeats but may differ in a detail not shown here. Identical values can stand only once.

How the values were obtained:
[1] = In vitro enzyme assay to detect hydrolysis of chlorophenol red-beta-D-[…] directly proportional to the number of Toxoplasma stably expressing beta-galactosidase; assay type: functional, organism-based, Toxoplasma gondii; details: for IC50: Toxoplasma gondii
[2] = microbe, parasite or virus in culture; details: Mycobacterium tuberculosis, 96 h, read-out: pIC50 (converted)
[3] = system: Schistosoma mansoni; test: High throughput screening of compounds against Schistosoma mansoni motility; assay type: functional; design: dose or concentration left out as unconfirmed
[4] = microbe, parasite or virus in culture; details: Mycobacterium tuberculosis, 72 h, read-out: pIC50 (converted)
[5] = molecular target: ClpP1P2 (Mycobacterium tuberculosis (strain ATCC 25618 / H37Rv), UniProt P9WPC3+P9WPC5); test: in vitro assay to detect presence of AMC directly proportional to the activity of ClpP1P2. GHDDI collaboration.; assay type: functional
ClpP1P2, sequence (P9WPC5 whole entry): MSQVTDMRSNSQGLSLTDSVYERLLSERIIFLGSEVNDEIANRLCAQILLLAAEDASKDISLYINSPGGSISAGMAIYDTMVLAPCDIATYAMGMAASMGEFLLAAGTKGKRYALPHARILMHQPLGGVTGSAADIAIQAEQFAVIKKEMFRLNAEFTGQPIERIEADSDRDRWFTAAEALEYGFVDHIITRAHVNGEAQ
ClpP1P2, sequence (P9WPC3 whole entry): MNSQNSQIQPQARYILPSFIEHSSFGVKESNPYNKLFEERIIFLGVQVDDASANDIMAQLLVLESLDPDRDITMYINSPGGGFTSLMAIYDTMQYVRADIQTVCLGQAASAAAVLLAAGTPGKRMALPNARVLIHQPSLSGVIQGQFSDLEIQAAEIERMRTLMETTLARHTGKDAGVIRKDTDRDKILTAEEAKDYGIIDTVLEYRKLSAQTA

[6] = system: Plasmodium falciparum; test: Calibr Malaria Delayed Death Assay SOP; assay type: functional, organism-based

| Structure (SMILES) | pIC50 [1] | Percent Effect [3] [%] | further results |
| --- | --- | --- | --- |
| Cc1cccc(NC(=O)C2CC(=O)n3cnnc3S2)c1 (stereo not given) | 4.363 | – | IC50 [1]: > 50.1 µM |
| O=C(CSc1nncs1)N1CCN(Cc2ccc(Cl)s2)CC1 | – | -37.37 | IC50 [2]: 41.1 µM; IC50 [4]: 48.2 µM |
| O=C(NCCC1=CCCCC1)c1n[nH]c2c1CCCC2 | 5.49 | – | IC50 [1]: 1.7 µM |
| COc1ccc(C(=O)N(CCO)Cc2ccccc2)c(OC)n1 | < 4.3 | – | IC50 [1]: 29.2 µM |
| COC(=O)CC(C1=Cc2ccccc2OC1)c1oc(C)cc(=O)c1O (stereo not given) | 4.537 | – | IC50 [1]: > 50.1 µM |
| CCCc1nc2c(c(C)c(C)n2Cc2ccccn2)c(N)c1CC | 4.935 | – | IC50 [1]: 10.4 µM |
| CC(C)NC(=O)Nc1nc2c(s1)CN(C(=O)NCc1cccs1)CC2 | 4.581 | – | IC50 [1]: > 50.1 µM |
| c1nc(N2CCOCC2)nc2c1COCC21CCN(CC2CC2)C1 (stereo not given) | < 4.3 | – | IC50 [1]: 44 µM |
| Cn1nnc2c1C(COCC1CC1)CN(C(=O)Cc1cccs1)C2 (stereo not given) | 4.541 | – | IC50 [1]: 30.9 µM |
| COC[C@H]1CCC[C@]12CN(Cc1cccc(C)n1)CCO2 | 4.382 | – | IC50 [1]: > 50.1 µM |
| CCN1C[C@H]2CCN(C(=O)NC)CC[C@H]2S1(=O)=O | 4.337 | – | IC50 [1]: > 50.1 µM |
| CCCNC(=O)CSc1nnc2[nH]c(=O)cc(CC)n12 | – | -63.88 | – |
| CCCc1nnsc1C(=O)NCC1CCN(c2ccccn2)CC1 | – | -128.4 | IC50 [2]: 30.8 µM; IC50 [4]: > 50.1 µM |
| O=C(NCCN1CCC(c2cccs2)CC1)Nc1cccs1 | – | -30.63 | – |
| Cn1c(C(F)(F)F)nn(CCNC(=O)NCc2ccccc2)c1=O | – | 16.6 | – |
| CC(C)(C)C(=O)NCCn1ccc(-c2ccncc2)n1 | – | -55.77 | – |
| CNC(=O)CS(=O)(=O)C1CCN(S(=O)(=O)c2ccccc2Br)CC1 | – | -49.15 | – |
| Cc1nc(N2CCN(C(=O)c3ccco3)CC2)c2c(n1)c(C)nn2C | 4.358 | – | IC50 [1]: > 50.1 µM |
| Cc1c(-c2cc(C(F)(F)F)nc(N3CCC(N)CC3)n2)cnn1C | 5.176 | – | IC50 [1]: 4.18 µM |
| CCn1c(NCc2ccccc2)nc2c(C)nn(C)c2c1=O | 4.457 | – | IC50 [1]: 22.7 µM |
| CCc1nc(Nc2ccc(C(=O)NC)cc2)c2c(n1)c(C)nn2CC | < 4.3 | – | IC50 [1]: 37.2 µM |
| CCn1nc(C)c2nc(C(C)C)nc(NCCc3ccc(O)cc3)c21 | 4.521 | – | IC50 [1]: 22.2 µM |
| c1cc(-c2nn3c(CN4CCOCC4)nnc3s2)ccn1 | < 4.3 | – | IC50 [1]: 44.7 µM |

| Structure (SMILES) | pIC50 [1] | Percent Effect [3] [%] | further results |
| --- | --- | --- | --- |
| O=C(c1ccc(COc2ccccc2Cl)o1)N1N=CCC1(O)C(F)(F)F (stereo not given) | 5.104 | – | IC50 [1]: 6.07 µM |
| Cc1cccc(OCc2ccc(C(=O)N3N=CCC3(O)C(F)(F)F)o2)c1 (stereo not given) | 5.353 | – | IC50 [1]: 3.87 µM |
| O=C(c1ccc(-c2ccc(O)nc2)s1)N1CCSCC1 | 4.349 | – | IC50 [1]: 36.8 µM |
| CC(=O)N1CC2(CCCN(Cc3ccc(Cl)cc3)C2)Cc2ccccc21 (stereo not given) | 4.953 | – | IC50 [1]: 10.4 µM |
| CCN(CCO)Cc1ccc(Br)c2cccnc12 | 5.613 | – | IC50 [1]: 2.26 µM |
| N#Cc1c(Cl)nsc1NCc1cccnc1OC1CCCC1 | 5.095 | – | IC50 [1]: 6.71 µM |
| CCc1ccc(NC(=O)C(C)Nc2cccc3c2OCCO3)cc1 (stereo not given) | 5.373 and 4.972 | – | – |
| CC(C(=O)Nc1sccc1C(N)=O)N(C)CCOc1ccccc1 (stereo not given) | 5.826 | – | IC50 [1]: 2.24 µM |
| COC(=O)c1sccc1NC(=O)C1CCCN1C(=O)c1ccco1 (stereo not given) | – | 1.887 | – |
| CC(Cn1cccn1)NC(=O)Nc1ccc(F)cc1 (stereo not given) | – | -15.2 | – |
| CC1CCN(CCNC(=O)C2CCN(S(N)(=O)=O)CC2)CC1 | – | 6.276 | – |
| CCC(C)NC(=O)Nc1ccc(CN2CCOC2=O)cc1 (stereo not given) | – | 3.949 | – |
| Brc1cc2c(cc1CN1CCC(N3CCCCC3)CC1)OCCO2 | – | -13 | IC50 [2]: > 50.1 µM; IC50 [4]: 19.9 µM |
| Cc1ncsc1C(=O)N1CCCC(c2noc(C(C)C)n2)C1 (stereo not given) | – | -12.34 | – |
| CN(C)C(=O)CNC(=O)Nc1cccc(Cl)c1SC(F)F | – | -29.89 | – |
| COc1ccccc1OCC(=O)Nc1ncccc1Cl | – | -2.169 | – |
| O=C(Nc1ccnc(OC2CCOC2)c1)c1cc(F)ccc1F (stereo not given) | – | -26.29 | – |
| COCCN(Cc1ccc(F)cc1Cl)C(=O)c1ccncc1 | – | -38.63 | – |
| O=C(c1ccc(Br)o1)N1CCN(Cc2ccc(OC(F)(F)F)cc2)CC1 | – | 71.06 | IC50 [2]: 40.6 µM; IC50 [4]: 27.8 µM |
| NS(=O)(=O)N1CCc2ccc(NC(=O)Cc3ccc(F)cc3)cc21 | – | -30.69 | IC50 [5]: 27.5 µM |
| O=C(Nc1cccnc1)N1CCC(n2ccc(C(F)(F)F)n2)CC1 | – | -86.87 | IC50 [2]: > 50.1 µM; IC50 [4]: 1.07 µM |
| Cc1cnn(CC2CCCN2Cc2coc(-c3ccccc3)n2)c1 (stereo not given) | – | -1.507 | IC50 [2]: > 50.1 µM; IC50 [4]: 22.6 µM |
| Cc1nc(CN2CCCC(N(C)CCc3cccs3)C2)no1 (stereo not given) | – | -59.95 | – |

| Structure (SMILES) | pIC50 [1] | Percent Effect [3] [%] | further results |
| --- | --- | --- | --- |
| CN(CCc1cccs1)C1CCCN(Cc2noc(C3CC3)n2)C1 (stereo not given) | – | -35.96 | IC50 [2]: > 50.1 µM; IC50 [4]: > 50.1 µM |
| c1cc(C2CCCN2Cc2nnnn2C2CC2)cs1 (stereo not given) | – | -76.39 | – |
| O=C1CCCCN1Cc1cccc(NC(=O)N2CCSCC2)c1 | – | 22.51 | – |
| COc1ccc(OC)c(CNCCc2cc(F)cc3c2OCOC3)c1 | – | 89.81 | – |
| CCc1cnc(CN(C)C2CCN(CCS(C)(=O)=O)C2)o1 (stereo not given) | – | -9.705 | – |
| COC(=O)CS(=O)(=O)CCC(=O)N1CCCC1c1ccsc1 (stereo not given) | – | -22.42 | – |
| CC(C)c1n[nH]c(C2CN(C(=O)CCCn3cccn3)CCO2)n1 (stereo not given) | – | 21.88 | – |
| COc1ccc(C2CCCN2S(=O)(=O)N(C)CC(C)C)cc1 (stereo not given) | – | 29.94 | IC50 [2]: 13.2 µM; IC50 [4]: 31.2 µM |
| O=C(CN1CCCC1Cn1cncn1)NC(C1CC1)C1CC1 (stereo not given) | – | -24.22 | – |
| CCc1ncncc1C(=O)NCCN1CCC(C)CC1 | – | -31.56 | – |
| Cc1cc(NC(=O)CN2CCCC2c2noc(C3CC3)n2)no1 (stereo not given) | – | -30.12 | – |
| C1CC1c1nsc(N2CCN(C3CC3)CC2)n1 | – | -51.78 | – |
| OCC1CCCN1c1cc(NCCc2c[nH]c3ccccc23)ncn1 (stereo not given) | – | 50.05 | IC50 [2]: 12.9 µM; IC50 [4]: 21.4 µM |
| CCCNC(=O)c1cc(-c2cnc(N3CCCC3)nc2)cn1C | 4.78 and 4.438 | – | – |
| CCCNC(=O)N1CCC(Oc2cc(C)ccc2F)(C(=O)O)CC1 | – | 27.97 | – |
| CN(C)Cc1nnc(C2CCN(c3nccc(N)n3)CC2)n1C1CC1 | – | -22.89 | – |
| CC(C)NC(=O)[C@@H]1C[C@H](N)CN1C(=O)c1cc2c([nH]c1=O)CCCC2 | – | -18.08 | – |
| CCCC(C)CN1CCC(n2cc(CCCO)nn2)CC1 (stereo not given) | – | -31.48 | – |
| CCN1CC2(CCC1=O)CCN(C(=O)c1ccc(Cl)cc1O)CC2 | – | -8.652 | – |
| Cc1cc(CC(=O)N2CCN(CC3CC3)[C@@H]3CS(=O)(=O)C[C@@H]32)ccc1F | – | 11.19 | – |
| Cc1cc(C[C@@H]2COC[C@@H]2NC(=O)CN2CCCN(C)CC2)on1 | – | -19.51 | – |
| Cc1cc(-c2nnc(SCC(=O)O)n2C(C)c2ccccc2)nn1C (stereo not given) | – | -38.23 | – |
| COc1cccc(OCc2cc(C(=O)NC[C@H]3CCCN3)n[nH]2)c1 | – | -4.692 | – |

| Structure (SMILES) | pIC50 [1] | Percent Effect [3] [%] | further results |
| --- | --- | --- | --- |
| COc1cc(CN2CCN(c3cccc(OC)c3)C(=O)C2)cc(OC)c1 | – | -47.17 | – |
| O=C(c1cc(=O)[nH]c(=O)[nH]1)N1CCCCC1c1ccc(F)cc1 (stereo not given) | – | -6.768 | – |
| COc1ccccc1[C@@H]1CN(Cc2cc(C(C)(C)C)[nH]n2)C[C@H]1C(=O)O | – | 42.17 | – |
| CC(C)NC(=O)[C@@H]1C[C@H](N)CN1C(=O)c1cc2ccccc2[nH]c1=O | – | -4.577 | – |
| CCc1cc(N[C@H]2CC[C@H](O)CC2)n2nc(C)c(C)c2n1 | – | 12.6 | – |
| CC(CN1CCOCC1)NCC1CCN(c2cnn(C)c(=O)c2)CC1 (stereo not given) | – | 33.93 | – |
| COc1ccccc1[C@@H]1CN(C(=O)c2csc(C)n2)C[C@H]1C(=O)O | – | 18.41 | – |
| CN(Cc1nccs1)c1nc(-c2ccccn2)nc2c1CCNCC2 | – | -21.71 | pIC50 [6]: 6.065; IC50 ([6]; Plasmodium falciparum): 0.882 µM |
| CCc1ccccc1CN1CC[C@@H](NC(=O)c2cccnc2)[C@H](O)C1 | – | -49.14 | – |
| Cn1ncc2c(NCCC34CCCN3CCC4)nc(C3CCCC3)nc21 | – | 79 | IC50 [2]: 26.8 µM; IC50 [4]: 42.3 µM |
| O=C(CCc1ccc(=O)[nH]n1)N1CCCC(COc2ccc(F)cc2)C1 (stereo not given) | – | 4.924 | – |
| CC(C)N1CCC(N2CCN(C3CCC3)CC2CCO)CC1 (stereo not given) | – | 7.869 | – |
| CCc1c(C)sc(NC(=O)CN2CCN(CC)CC2)c1C(=O)OC | – | 98.89 | IC50 [2]: 15.4 µM; IC50 [4]: 2.52 µM |
| CCN(c1ccc(C(=O)N2CCCC2)cc1)S(=O)(=O)CC | – | 5.771 | – |
| CC(COc1ccccc1)NCc1nc(-c2cccnc2)no1 (stereo not given) | – | -35.35 | – |
| O=C(NC1CCCC1)N1CCCC(c2nccn2Cc2ccncc2)C1 (stereo not given) | – | -2.761 | IC50 [2]: > 50.1 µM |
| Cc1cc(N(C)Cc2cc(C)on2)n2nc(C)c(C)c2n1 | – | -4.677 | IC50 [2]: 33.7 µM; IC50 [4]: 13.5 µM |
| CC[C@@]1(O)CCN(C(=O)c2ccsc2)C[C@H]1O | – | -27.08 | – |
| CC(C)C(=O)NCCNc1nccc(-c2cc(C(=O)O)ccn2)n1 | – | 19.02 | – |
| CN(C)CCCNCCC(Cc1ccccc1)C1CCOC(C)(C)C1.O=C(O)C(=O)O (stereo not given) | 5.163 | – | IC50 [1]: 4.6 µM |
| Cc1ccc(CN2Cc3nnn(C)c3C(COCc3ccccc3)C2)s1.O=C(O)C(F)(F)F (stereo not given) | 4.987 | – | IC50 [1]: 7.69 µM |
| Cc1cnc(N2CC[C@H]3[C@@H]2CCC(=O)N3c2ccccc2)nc1.O=C(O)C(F)(F)F | 4.34 | – | IC50 [1]: > 50.1 µM |
